For 20 compounds, IC50 results are on record in patent publication US9216981B2, “Purinylpyridinylamino-2,4-difluorophenyl sulfonamide derivative, pharmaceutically acceptable salt thereof, preparation method thereof, and pharmaceutical composition with inhibitory activity against Raf kinase, containing same as active ingredient” (Medpacto, Inc., priority 2010, dated 2015).

One assay deals with B-Raf (Homo sapiens (Human), UniProt P15056). Kind of assay: B-Raf kinase activity (B-Raf/MEK1/MAPK2 cascade, MBP phosphorylation, [γ-32P]ATP). The following applies: activated B-Raf, inactivated MEK1, inactivated MAPK2, 30° C., 30 minutes, read-out: B-Raf Enzyme Activity. The format is biochemical. The protocol: To check the B-Raf kinase inhibitory activity of the compounds of the present invention, the following experiments were conducted.
20 μl of diluting solvent (20 mM MOPS, pH 7.2, 25 mM β-glycerol phosphate, 5 mM EGTA, 1 mM sodium orthovanadate, 1 mM dithiothreitol) and 10 μl of Mg/ATP mixed solution (500 μM ATP, 75 mM magnesium chloride) were added into a centrifuge tube, the derivative compound of Formula 1 was added or the compounds of the Examples were not added as a control group, and then 1 ng of activated B-Raf, 0.4 ng of inactivated MEK1, and 1 μg of inactivated MAPK2 were added. The solutions in the tube were collected on the bottom via centrifugation and were reacted at 30° C. for 30 minutes. After taking 4 μl of the mixed solution, the test proceeded to the next step.
(2) Phosphorylation of Matrix Protein MBP by MAPK2
10 μl of diluting solvent, 20 μg of MBP used as a matrix, and 10 μl of diluted [γ-32P]ATP (1 μCi/μL) were added into the 4 μl of the mixed solution obtained from (1). The solutions in the tube were collected on the bottom via centrifugation and were reacted at 30° C. for 30 minutes. And 25 μl of the reacted solution was put carefully on the center of a filter paper (2 cm×2 cm P81) for 30 seconds. Afterwards, the filter paper was cleaned with 0.75% phosphoric acid for 10 minutes three times and with acetone for 5 minutes one time. The filter paper was then moved to a scintillation vial and 5 ml of scintillation cocktail was added thereto. The inhibition rate (IC50) over B-Raf activity was measured by reading radioactivity through a scintillation counter while comparing to the control group.

The subject of another assay is A375P cell line. Kind of assay: B-Raf cell activity inhibition (A375P growth inhibition, MTT assay). The assay is classed as cell-based. The following applies: A375P human melanoma, V600E mutant of B-Raf, 72 hours. Here is the method: To check the B-Raf cell activity inhibitory capability of the compounds of the present invention, the following experiments were conducted in A375P cell line (ATCC). […] A375 cell was maintained in DMEM supplemented with 10% fetal bovine serum, glutamine (2 mM), penicillin (100 U/mL), and streptomycin (100 μg/mL). The cell was maintained at 37° C., and in 5% CO2 and 100% humidity. To conduct the growth inhibition test, the cell was plated by using a white 384-well microplate, with 1000 cells/20 μl plated per 1 well. After 24 hours, 5 μl of 5× stock solution of drug was added. All the drugs were initially prepared with 200× stock solution in DMSO, and the final concentration of DMSO was 0.5%. The cell was incubated at 37° C. for 72 hours. For MTT assay, ‘CellTiter 96 (R) Non-Radioactive Cell Proliferation Assay (G4100)’ kit by Promega Corp. was used. 15 μl of dye solution of the Promega kit was put into each well and was cultured in the incubator for 4 hours. And 100 μl of each Solubilization/Stop Solution substance of the kit was added and fixed in the incubator for 24 hours again. And then, absorbance was measured by using a 96-well plate reader with 570 nm of absorbance.

Chain of B-Raf (P15056 whole entry): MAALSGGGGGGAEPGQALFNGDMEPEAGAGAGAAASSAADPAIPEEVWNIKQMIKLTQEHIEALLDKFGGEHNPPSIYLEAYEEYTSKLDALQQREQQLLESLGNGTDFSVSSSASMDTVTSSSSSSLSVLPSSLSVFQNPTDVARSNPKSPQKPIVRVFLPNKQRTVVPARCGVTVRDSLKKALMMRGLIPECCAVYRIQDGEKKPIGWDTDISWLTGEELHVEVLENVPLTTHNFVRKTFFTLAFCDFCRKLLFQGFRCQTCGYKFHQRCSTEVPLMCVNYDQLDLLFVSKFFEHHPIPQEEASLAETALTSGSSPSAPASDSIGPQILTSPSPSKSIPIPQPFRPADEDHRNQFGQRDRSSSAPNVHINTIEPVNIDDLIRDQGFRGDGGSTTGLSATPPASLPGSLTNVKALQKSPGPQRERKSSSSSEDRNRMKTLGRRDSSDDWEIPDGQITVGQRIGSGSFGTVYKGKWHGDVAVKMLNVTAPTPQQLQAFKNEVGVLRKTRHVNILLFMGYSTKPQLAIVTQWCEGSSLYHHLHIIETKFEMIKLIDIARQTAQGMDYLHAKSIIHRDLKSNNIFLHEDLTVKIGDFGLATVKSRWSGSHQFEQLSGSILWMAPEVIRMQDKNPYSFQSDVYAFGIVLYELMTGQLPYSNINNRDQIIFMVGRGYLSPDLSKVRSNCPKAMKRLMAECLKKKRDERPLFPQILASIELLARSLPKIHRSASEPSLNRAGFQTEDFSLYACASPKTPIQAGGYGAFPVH

With `O=S(=O)(Nc1ccc(F)c(Nc2ncccc2-c2ncnc3[nH]cnc23)c1F)c1cccc(Cl)c1Cl` [Example 34, N-(3-(3-(9H-purin-6-yl)pyridin-2-ylamino)-2,4-difluorophenyl)-2,3-chlorobenzenesulfonamide], the IC50 stood at 40 nM on B-Raf and 500 nM in the assay with A375P cell line.
For the compound `Cc1ccccc1S(=O)(=O)Nc1ccc(F)c(Nc2ncccc2-c2ncnc3[nH]cnc23)c1F` [Example 31, N-(3-(3-(9H-purin-6-yl)pyridin-2-ylamino)-2,4-difluorophenyl)-2-methylbenzenesulfonamide], the IC50 on B-Raf stood at 50 nM; in the assay with A375P cell line, 670 nM.
Take `O=S(=O)(Nc1ccc(F)c(Nc2ncccc2-c2ncnc3[nH]cnc23)c1F)c1ccc(C(F)(F)F)cc1` [Example 3, N-(3-(3-(9H-purin-6-yl)pyridin-2-ylamino)-2,4-difluorophenyl)-4-(trifluoromethyl)benzenesulfonamide]: the IC50 at B-Raf was 30 nM; with A375P cell line it was 5200 nM.
With `COc1ccc(S(=O)(=O)Nc2ccc(F)c(Nc3ncccc3-c3ncnc4[nH]cnc34)c2F)cc1OC` [Example 10, N-(3-(3-(9H-purin-6-yl)pyridin-2-ylamino)-2,4-difluorophenyl)-3,4-dimethoxybenzenesulfonamide], the IC50 turned out to be 1200 nM at B-Raf and 10200 nM in the assay with A375P cell line.
As to `O=S(=O)(Nc1ccc(F)c(Nc2ncccc2-c2ncnc3[nH]cnc23)c1F)c1cccnc1` [Example 30, N-(3-(3-(9H-purin-6-yl)pyridin-2-ylamino)-2,4-difluorophenyl)pyridin-3-sulfonamide], the IC50 on B-Raf is 4 nM; in the assay with A375P cell line, 70 nM.
In the case of `Cn1cc(S(=O)(=O)Nc2ccc(F)c(Nc3ncccc3-c3ncnc4[nH]cnc34)c2F)cn1` [Example 43, N-(3-(3-(9H-purin-6-yl)pyridin-2-ylamino)-2,4-difluorophenyl)-1-methyl-1H-pyrazole-4-sulfonamide], the IC50 was found to be 120 nM on B-Raf and 1370 nM with A375P cell line.
For `Cc1cc(S(=O)(=O)Nc2ccc(F)c(Nc3ncccc3-c3ncnc4[nH]cnc34)c2F)c(C(F)(F)F)o1` [Example 26, N-(3-(3-(9H-purin-6-yl)pyridin-2-ylamino)-2,4-difluorophenyl)-5-methyl-2-(trifluoromethyl)furan-3-sulfonamide] the same measures were 30 nM and 330 nM.
For `O=S(=O)(Nc1ccc(F)c(Nc2ncccc2-c2ncnc3[nH]cnc23)c1F)c1cccc(C(F)(F)F)c1` [Example 2, N-(3-(3-(9H-purin-6-yl)pyridin-2-ylamino)-2,4-difluorophenyl)-3-(trifluoromethyl)benzenesulfonamide], the IC50 at B-Raf is 8.8 nM; with A375P cell line, 230 nM.
Turning to `O=S(=O)(Nc1ccc(F)c(Nc2ncccc2-c2ncnc3[nH]cnc23)c1F)c1cccc2c1OCC2` [Example 36, N-(3-(3-(9H-purin-6-yl)pyridin-2-ylamino)-2,4-difluorophenyl)-2,3-dihydrobenzofuran-7-sulfonamide], the IC50 on B-Raf was found to be 1020 nM; in the assay with A375P cell line, 8370 nM.
For `O=S(=O)(Nc1ccc(F)c(Nc2ncccc2-c2ncnc3[nH]cnc23)c1F)c1cccs1` [Example 4, N-(3-(3-(9H-purin-6-yl)pyridin-2-ylamino)-2,4-difluorophenyl)thiophene-2-sulfonamide] the same measures were 12 nM and 30 nM.
Consider `O=S(=O)(Nc1ccc(F)c(Nc2ncccc2-c2ncnc3[nH]cnc23)c1F)c1cccc2c1OCCC2` [Example 38, N-(3-(3-(9H-purin-6-yl)pyridin-2-ylamino)-2,4-difluorophenyl)chromane-8-sulfonamide], for which the IC50 at B-Raf came out at 900 nM; in the assay on A375P cell line, 7190 nM.
As for `Cc1nc(C)c(S(=O)(=O)Nc2ccc(F)c(Nc3ncccc3-c3ncnc4[nH]cnc34)c2F)s1` [Example 20, N-(3-(3-(9H-purin-6-yl)pyridin-2-ylamino)-2,4-difluorophenyl)-2,4-dimethylthiazole-5-sulfonamide], the IC50 on B-Raf was found to be 160 nM; in the assay on A375P cell line, 700 nM.
Turning to `O=S(=O)(Nc1ccc(F)c(Nc2ncccc2-c2ncnc3[nH]cnc23)c1F)c1ccoc1` [Example 18, N-(3-(3-(9H-purin-6-yl)pyridin-2-ylamino)-2,4-difluorophenyl)furan-3-sulfonamide], the figures for the IC50 on B-Raf and in the assay on A375P cell line were 1 nM and 2 nM, respectively.
Consider `Cc1c(Cl)cccc1S(=O)(=O)Nc1ccc(F)c(Nc2ncccc2-c2ncnc3[nH]cnc23)c1F` [Example 14, N-(3-(3-(9H-purin-6-yl)pyridin-2-ylamino)-2,4-difluorophenyl)-3-chloro-2-methyl benzenesulfonamide], for which the figures for the IC50 at B-Raf and with A375P cell line were 2 nM and 6 nM, respectively.
On to `O=S(=O)(Nc1ccc(F)c(Nc2ncccc2-c2ncnc3[nH]cnc23)c1F)c1ccc(OC(F)(F)F)cc1` [Example 12, N-(3-(3-(9H-purin-6-yl)pyridin-2-ylamino)-2,4-difluorophenyl)-4-(trifluoromethoxy)benzenesulfonamide], for which the figures for the IC50 at B-Raf and in the assay with A375P cell line were 610 nM and 600 nM, respectively.
For the compound `O=S(=O)(Nc1ccc(F)c(Nc2ncccc2-c2ncnc3[nH]cnc23)c1F)c1cccc2ccoc12` [Example 37, N-(3-(3-(9H-purin-6-yl)pyridin-2-ylamino)-2,4-difluorophenyl)benzofuran-7-sulfonamide], the IC50 stood at 90 nM at B-Raf and 810 nM in the assay with A375P cell line.
In the case of `COC(=O)c1sccc1S(=O)(=O)Nc1ccc(F)c(Nc2ncccc2-c2ncnc3[nH]cnc23)c1F` [Example 16, Methyl-3-(N-(3-(3-(9H-purin-6-yl)pyridin-2-ylamino)-2,4-difluorophenyl)sulfamoyl)thiophene-2-carboxylate], the IC50 on B-Raf amounted to 1500 nM; in the assay with A375P cell line, 9600 nM.
For `O=S(=O)(Nc1ccc(F)c(Nc2ncccc2-c2ncnc3[nH]cnc23)c1F)c1ccc(F)c(Cl)c1` [Example 28, N-(3-(3-(9H-purin-6-yl)pyridin-2-ylamino)-2,4-difluorophenyl)-3-chloro-4-fluorobenzenesulfonamide], the IC50 worked out at 300 nM at B-Raf and 1930 nM in the assay on A375P cell line.
Regarding `Cn1cnc(S(=O)(=O)Nc2ccc(F)c(Nc3ncccc3-c3ncnc4[nH]cnc34)c2F)c1` [Example 22, N-(3-(3-(9H-purin-6-yl)pyridin-2-ylamino)-2,4-difluorophenyl)-1-methyl-1-imidazole-4-sulfonamide], the IC50 amounted to 1800 nM at B-Raf and 1000 nM in the assay with A375P cell line.
For `O=S(=O)(Nc1ccc(F)c(Nc2ncccc2-c2ncnc3[nH]cnc23)c1F)N1CCOCC1` [Example 21, N-(3-(3-(9H-purin-6-yl)pyridin-2-ylamino)-2,4-difluorophenyl)morpholine-4-sulfonamide], the IC50 at B-Raf was determined as 1300 nM; with A375P cell line it was 360 nM.
